The subject of data set [1] is Human immunodeficiency virus 1. Put plainly: Inhibition of HIV1 capsid protein p24 interaction with CPSF6 (308-327) at 300 uM.
Data set [2] relates to Human immunodeficiency virus 1. Nature of the data set: Binding affinity to HIV1 capsid protein p24 assessed as turbidity at 100 uM by spectrophotometer analysis.
Data set [3] can be described thus: Binding affinity to HIV1 capsid protein p24 by SPR assay. The arrangement: species or system Human immunodeficiency virus 1. For orientation: In SPR one partner is held on a chip, and binding of the other changes the refractive index at the surface.
Data set [4] in a line: Therapeutic index, ratio of CC50 for human U87 cells expressing CD4.CCR5 to IC50 for HIV1 NL4-3 pseudotyped with JR-FL envelope. Type of data set: cell-based, U-87MG ATCC. As to conditions: read-out: Ratio CC50/IC50.
The nature of data set [5]: Cytotoxicity against human U87 cells expressing CD4.CCR5. Format: cell-based, U-87MG ATCC.
The subject of data set [6] is Human immunodeficiency virus 1. Put plainly: Inhibition of HIV1 capsid protein p24 interaction with CPSF6 (308-327) at 2.5 uM.
Data set [7] deals with Human immunodeficiency virus 1. Put plainly: Antiviral activity against HIV1 NL4-3 pseudotyped with JR-FL envelope infected in human U87.CD4.CCR5 cells by single-round infection assay. Type of data set: functional, organism-based. As to conditions: Human immunodeficiency virus 1, NL4-3, U87/CD4/CCR5.

Activity calls are given as the source filed them. The rule behind the calls is not given here. Some results are limits rather than exact numbers.

With `Cc1[nH]c2ccccc2c1CC(=O)N[C@@H](Cc1ccccc1)C(=O)N(C)c1ccccc1`, in data set [1], the inhibition entry was “Active”. Further, the outcome in data set [2] was Active. Besides, the Kd (in general, the constant that tells how readily two partners part at equilibrium) in data set [3] came out at 2.53 µM.

Turning to `O=C(Cc1c[nH]c2ccccc12)NCC1(c2ccccc2)CC1`, in data set [4], the selectivity ratio is above 29. For the same molecule, the result in data set [2] was Active. Further, in data set [5], half-maximal cytotoxicity (CC50) was put at 526 µM. The inhibition entry in data set [6] is “Active”. The IC50 (usually the concentration at which inhibition is half-maximal) in data set [7] was 18.1 µM. The molecule also yielded a Kd in data set [3] of 38.2 µM.

These data come from ChEMBL document CHEMBL3745691, “Identification of a small molecule HIV-1 inhibitor that targets the capsid hexamer” (Bioorg Med Chem Lett, 2016).
